Experiment [1] deals with T1, CDK1B (Homo sapiens, UniProt P06493). The following applies: 1 µM.
The next experiment deals with CDK4/D1 (Homo sapiens, UniProt P11802). In words: ADP Glo kinase assay, CDK4/D1. The format is biochemical. The following applies: CDK4D1.
The target in a further experiment is CDK2E1 (Homo sapiens, UniProt P24941). In words: biochemical.
A further experiment concerns the target CDK6/D3 (Homo sapiens, UniProt Q00534). In words: ADP Glo kinase assay, CDK6/D3. It counts as biochemical. As to conditions: CDK6D3. (ADP-Glo first removes unused ATP, then detects ADP through luciferase.)
A further experiment has as its system U937. In words: Proliferation assay (resazurin/MTT), U937. It counts as cell-based. The following applies: Homo sapiens, U-937, read-out: 72 h Growth inhibition GI50, U937 cells.
The next experiment has as its target CDK9/CyclinT1 (Homo sapiens, UniProt P50750). In words: ADP Glo kinase assay, CDK9/CyclinT1. The format is biochemical. As to conditions: CDK9T1; apparent Ki calculated from Km (ATP) and IC50; read-out: CDK inhibition Ki.
A further experiment deals with MV-4-11. The experiment can be described thus: Proliferation assay (resazurin/MTT), MV-4-11. The following applies: Homo sapiens, MV4-11, read-out: 72 h Growth inhibition GI50, MV-4-11 cells. The format is cell-based.
The next experiment addresses T2, FLT3(ITD) (Homo sapiens, UniProt P36888).
T2 sequence (P36888 1-993): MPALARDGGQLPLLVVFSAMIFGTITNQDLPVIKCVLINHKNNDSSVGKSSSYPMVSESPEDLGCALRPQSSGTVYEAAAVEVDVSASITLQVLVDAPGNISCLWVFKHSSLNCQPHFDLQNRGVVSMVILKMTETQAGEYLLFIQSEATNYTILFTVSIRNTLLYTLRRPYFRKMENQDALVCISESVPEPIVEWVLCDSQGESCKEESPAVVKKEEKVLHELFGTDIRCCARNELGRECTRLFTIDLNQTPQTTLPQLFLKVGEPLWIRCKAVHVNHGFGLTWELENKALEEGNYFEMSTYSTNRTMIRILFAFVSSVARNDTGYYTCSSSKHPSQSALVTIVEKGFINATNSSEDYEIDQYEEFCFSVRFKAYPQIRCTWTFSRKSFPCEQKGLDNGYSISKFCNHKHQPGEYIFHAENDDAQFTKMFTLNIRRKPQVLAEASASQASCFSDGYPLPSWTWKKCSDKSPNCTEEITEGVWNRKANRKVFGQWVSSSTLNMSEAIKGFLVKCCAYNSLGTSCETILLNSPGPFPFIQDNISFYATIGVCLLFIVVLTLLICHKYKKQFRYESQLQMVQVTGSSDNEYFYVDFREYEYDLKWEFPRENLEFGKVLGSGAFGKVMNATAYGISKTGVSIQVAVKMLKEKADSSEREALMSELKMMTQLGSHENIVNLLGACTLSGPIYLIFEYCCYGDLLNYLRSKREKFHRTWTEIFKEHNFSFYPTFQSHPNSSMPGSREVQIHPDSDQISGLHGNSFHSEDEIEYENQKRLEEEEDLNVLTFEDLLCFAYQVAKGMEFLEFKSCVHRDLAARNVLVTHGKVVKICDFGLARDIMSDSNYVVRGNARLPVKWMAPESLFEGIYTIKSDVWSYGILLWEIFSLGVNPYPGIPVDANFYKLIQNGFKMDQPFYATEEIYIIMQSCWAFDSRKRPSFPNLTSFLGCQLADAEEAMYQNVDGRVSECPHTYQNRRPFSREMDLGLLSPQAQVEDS
In words: ADP Glo kinase assay, FLT3(ITD). The format is biochemical. As to conditions: apparent Ki calculated from Km (ATP) and IC50, read-out: FLT3 inhibition Ki.

For a further experiment, the target named is CDK7HMAT1 (Homo sapiens, UniProt P50613). The following applies: 10 µM.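 Further: kinase activity measured with an ADP-Glo luminescent kinase assay.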
The target of a further experiment is T3, FLT3(D835Y) (Homo sapiens, UniProt P36888, D835Y).
T3 sequence (P36888 27-993 D835Y): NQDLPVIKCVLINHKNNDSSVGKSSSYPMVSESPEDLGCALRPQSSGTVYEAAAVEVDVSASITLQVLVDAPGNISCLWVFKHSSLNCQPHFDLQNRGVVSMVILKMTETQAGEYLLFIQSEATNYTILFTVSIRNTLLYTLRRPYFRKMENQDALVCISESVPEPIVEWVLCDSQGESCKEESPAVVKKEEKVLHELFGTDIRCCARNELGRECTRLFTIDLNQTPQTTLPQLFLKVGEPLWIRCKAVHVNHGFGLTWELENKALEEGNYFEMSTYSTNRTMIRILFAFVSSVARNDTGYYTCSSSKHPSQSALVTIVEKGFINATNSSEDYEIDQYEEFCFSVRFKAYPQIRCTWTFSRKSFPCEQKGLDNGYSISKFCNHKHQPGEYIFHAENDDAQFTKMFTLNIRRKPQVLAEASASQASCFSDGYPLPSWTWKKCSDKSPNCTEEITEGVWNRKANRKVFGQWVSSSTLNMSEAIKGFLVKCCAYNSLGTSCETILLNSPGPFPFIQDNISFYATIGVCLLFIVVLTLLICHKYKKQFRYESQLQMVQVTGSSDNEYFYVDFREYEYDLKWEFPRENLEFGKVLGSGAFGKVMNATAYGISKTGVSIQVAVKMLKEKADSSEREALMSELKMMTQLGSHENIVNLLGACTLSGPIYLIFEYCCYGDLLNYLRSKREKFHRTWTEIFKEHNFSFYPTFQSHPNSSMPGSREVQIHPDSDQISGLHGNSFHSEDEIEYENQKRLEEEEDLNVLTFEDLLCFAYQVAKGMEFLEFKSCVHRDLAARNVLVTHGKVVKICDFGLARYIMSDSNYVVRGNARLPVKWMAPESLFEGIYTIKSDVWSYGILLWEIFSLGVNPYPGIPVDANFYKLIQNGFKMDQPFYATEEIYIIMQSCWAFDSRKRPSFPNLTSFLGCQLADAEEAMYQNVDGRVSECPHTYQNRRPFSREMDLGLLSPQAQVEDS
The experiment can be described thus: ADP Glo kinase assay, FLT3(D835Y). It counts as biochemical. The following applies: apparent Ki calculated from Km (ATP) and IC50, read-out: FLT3 inhibition Ki.

The next experiment deals with T4, FLT3(WT) (Homo sapiens, UniProt P36888).
T4 sequence (P36888 27-993): T3 sequence (P36888 27-993 D835Y) with Y809D
The experiment can be described thus: ADP Glo kinase assay, FLT3(WT). It counts as biochemical. The following applies: compound at 1 μM, read-out: residual enzymatic activity (%) at 1 μM.

In experiment [2] the target is T1, CDK1B. In words: biochemical.
The mark [3] stands for this setting: compound at 1 μM (values marked *), read-out: residual enzymatic activity (%) at 1 μM*.
Setting [4] is: apparent Ki calculated from Km (ATP) and IC50, read-out: CDK inhibition Ki.

The text below walks through data of US12398132B2, “Derivatives of 4-(imidazo[1,2-a]pyridin-3-yl)-n-(pyridinyl)pyrimidin-2-amine as therapeutic agents” (AUCENTRA THERAPEUTICS PTY LTD, priority 2019, dated 2025).

Where a chain is given by its changes, count along the chain named.

Sequence of CDK9/CyclinT1 (P50750 whole entry, species assumed): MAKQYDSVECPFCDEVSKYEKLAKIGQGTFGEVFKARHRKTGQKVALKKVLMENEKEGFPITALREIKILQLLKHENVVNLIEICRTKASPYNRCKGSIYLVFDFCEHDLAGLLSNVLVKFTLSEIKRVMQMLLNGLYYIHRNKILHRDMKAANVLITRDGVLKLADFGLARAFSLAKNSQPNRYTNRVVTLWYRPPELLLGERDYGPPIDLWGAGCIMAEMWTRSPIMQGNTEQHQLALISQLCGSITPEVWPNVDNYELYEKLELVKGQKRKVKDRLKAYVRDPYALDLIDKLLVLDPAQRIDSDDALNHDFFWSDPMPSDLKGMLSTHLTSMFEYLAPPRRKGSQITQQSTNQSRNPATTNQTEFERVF
Sequence of CDK9/CyclinT1 (O60563 whole entry partner, species assumed): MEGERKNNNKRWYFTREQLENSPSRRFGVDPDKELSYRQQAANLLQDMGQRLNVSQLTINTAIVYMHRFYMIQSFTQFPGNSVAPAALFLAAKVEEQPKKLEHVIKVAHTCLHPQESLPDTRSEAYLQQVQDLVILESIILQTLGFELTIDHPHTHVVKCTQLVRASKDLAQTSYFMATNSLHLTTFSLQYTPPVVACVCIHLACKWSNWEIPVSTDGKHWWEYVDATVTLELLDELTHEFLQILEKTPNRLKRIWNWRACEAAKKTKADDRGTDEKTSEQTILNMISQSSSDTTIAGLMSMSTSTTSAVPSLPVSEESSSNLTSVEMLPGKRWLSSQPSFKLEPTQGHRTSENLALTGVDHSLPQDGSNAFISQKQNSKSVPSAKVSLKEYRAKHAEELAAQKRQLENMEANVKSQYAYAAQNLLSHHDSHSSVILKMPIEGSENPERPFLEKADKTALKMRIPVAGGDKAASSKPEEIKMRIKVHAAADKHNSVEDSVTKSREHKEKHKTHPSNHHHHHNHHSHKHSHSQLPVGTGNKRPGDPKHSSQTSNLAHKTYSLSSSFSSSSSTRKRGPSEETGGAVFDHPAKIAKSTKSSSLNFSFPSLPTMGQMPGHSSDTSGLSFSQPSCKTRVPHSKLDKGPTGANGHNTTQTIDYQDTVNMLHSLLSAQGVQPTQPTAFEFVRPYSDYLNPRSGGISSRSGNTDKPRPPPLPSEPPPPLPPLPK
Sequence of CDK4/D1 (P11802 whole entry, species assumed): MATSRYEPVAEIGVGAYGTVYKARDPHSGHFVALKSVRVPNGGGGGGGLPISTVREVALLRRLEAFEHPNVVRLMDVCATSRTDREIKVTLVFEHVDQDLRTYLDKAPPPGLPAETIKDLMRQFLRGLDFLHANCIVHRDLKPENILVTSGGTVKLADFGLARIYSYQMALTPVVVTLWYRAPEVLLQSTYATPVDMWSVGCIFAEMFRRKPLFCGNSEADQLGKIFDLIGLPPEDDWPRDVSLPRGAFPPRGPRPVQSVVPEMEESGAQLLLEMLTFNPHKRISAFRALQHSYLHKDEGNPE
Sequence of CDK4/D1 (P24385 whole entry partner, species assumed): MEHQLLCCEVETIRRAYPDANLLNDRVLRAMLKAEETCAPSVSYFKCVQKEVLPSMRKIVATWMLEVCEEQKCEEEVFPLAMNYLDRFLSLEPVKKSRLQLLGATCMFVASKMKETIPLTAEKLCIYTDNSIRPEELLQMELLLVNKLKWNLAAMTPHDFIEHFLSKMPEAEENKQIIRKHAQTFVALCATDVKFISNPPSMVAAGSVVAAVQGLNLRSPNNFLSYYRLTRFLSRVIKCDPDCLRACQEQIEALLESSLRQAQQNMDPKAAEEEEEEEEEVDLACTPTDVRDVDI
T1 sequence (P06493 whole entry): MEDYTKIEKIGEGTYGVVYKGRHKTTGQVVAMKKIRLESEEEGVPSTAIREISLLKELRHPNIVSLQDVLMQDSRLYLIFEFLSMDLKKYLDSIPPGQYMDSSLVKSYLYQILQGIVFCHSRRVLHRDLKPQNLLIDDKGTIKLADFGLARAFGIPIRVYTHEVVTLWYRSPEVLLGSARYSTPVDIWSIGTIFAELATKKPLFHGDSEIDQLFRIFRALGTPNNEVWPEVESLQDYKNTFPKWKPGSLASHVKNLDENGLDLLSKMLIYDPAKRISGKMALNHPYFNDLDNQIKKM
T1 sequence (P14635 whole entry partner): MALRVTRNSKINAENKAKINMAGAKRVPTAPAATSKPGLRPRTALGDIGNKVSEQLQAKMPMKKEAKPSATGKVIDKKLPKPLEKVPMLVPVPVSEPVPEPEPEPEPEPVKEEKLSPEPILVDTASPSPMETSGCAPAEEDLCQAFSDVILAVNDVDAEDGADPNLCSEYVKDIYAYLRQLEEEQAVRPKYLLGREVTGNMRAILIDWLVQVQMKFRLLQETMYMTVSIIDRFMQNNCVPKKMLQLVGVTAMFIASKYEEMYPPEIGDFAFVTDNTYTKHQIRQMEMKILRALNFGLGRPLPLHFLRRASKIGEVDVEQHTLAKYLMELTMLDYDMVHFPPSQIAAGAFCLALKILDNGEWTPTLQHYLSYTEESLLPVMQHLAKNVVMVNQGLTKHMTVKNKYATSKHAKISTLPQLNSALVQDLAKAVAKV
Sequence of CDK6/D3 (Q00534 whole entry, species assumed): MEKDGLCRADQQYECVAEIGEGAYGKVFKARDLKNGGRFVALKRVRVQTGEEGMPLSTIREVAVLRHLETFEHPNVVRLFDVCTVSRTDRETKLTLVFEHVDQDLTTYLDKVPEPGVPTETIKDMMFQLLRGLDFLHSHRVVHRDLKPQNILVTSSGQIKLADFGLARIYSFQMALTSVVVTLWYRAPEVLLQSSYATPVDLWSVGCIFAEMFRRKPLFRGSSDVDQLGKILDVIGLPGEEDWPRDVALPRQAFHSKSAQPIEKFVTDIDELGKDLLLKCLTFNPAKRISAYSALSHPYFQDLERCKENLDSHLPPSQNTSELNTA
Sequence of CDK6/D3 (P30281 whole entry partner, species assumed): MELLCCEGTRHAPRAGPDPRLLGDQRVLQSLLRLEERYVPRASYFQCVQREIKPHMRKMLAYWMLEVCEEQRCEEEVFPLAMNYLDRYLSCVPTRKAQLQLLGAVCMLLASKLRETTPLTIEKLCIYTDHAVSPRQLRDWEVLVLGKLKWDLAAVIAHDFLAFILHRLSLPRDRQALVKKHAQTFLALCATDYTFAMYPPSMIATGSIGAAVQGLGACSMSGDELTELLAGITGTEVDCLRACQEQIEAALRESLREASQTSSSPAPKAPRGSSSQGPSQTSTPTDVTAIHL
Sequence of CDK7HMAT1 (P50613 whole entry): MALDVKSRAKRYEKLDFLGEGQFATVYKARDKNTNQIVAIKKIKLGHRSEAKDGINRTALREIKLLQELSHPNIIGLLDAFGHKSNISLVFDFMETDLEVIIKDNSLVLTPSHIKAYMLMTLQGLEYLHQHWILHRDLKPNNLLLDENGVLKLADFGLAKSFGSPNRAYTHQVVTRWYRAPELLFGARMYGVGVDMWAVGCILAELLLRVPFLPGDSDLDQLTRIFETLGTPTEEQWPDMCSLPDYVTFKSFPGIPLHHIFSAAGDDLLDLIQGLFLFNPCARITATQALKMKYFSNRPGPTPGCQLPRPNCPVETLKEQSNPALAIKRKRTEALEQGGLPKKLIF
Sequence of CDK7HMAT1 (P51946 whole entry partner): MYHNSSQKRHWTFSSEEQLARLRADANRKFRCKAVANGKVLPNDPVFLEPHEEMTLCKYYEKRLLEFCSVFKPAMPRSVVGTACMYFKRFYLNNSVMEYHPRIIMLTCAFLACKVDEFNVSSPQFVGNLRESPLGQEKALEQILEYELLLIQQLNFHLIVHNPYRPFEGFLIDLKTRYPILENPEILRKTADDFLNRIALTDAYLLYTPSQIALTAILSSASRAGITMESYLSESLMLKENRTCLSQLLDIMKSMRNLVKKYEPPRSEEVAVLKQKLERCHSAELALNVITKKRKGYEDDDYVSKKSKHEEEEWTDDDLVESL
Sequence of CDK7HMAT1 (P51948 whole entry partner): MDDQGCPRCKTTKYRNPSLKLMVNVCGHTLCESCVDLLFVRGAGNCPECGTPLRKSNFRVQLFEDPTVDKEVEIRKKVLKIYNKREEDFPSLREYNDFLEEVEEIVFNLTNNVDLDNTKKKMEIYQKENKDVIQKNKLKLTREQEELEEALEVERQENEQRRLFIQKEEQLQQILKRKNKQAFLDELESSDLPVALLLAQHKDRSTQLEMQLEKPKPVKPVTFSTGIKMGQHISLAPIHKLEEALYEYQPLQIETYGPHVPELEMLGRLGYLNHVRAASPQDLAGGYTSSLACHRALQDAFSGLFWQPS
Procedure for CDK7HMAT1: (§1) Inhibition of FLT3(WT), FLT3(ITD) and FLT3(D835Y) and CDKs were determined using ADP Glo Kinase assays (Promega Corporation, Madison, WI, USA). […] The kinase reactions are run for an optimised time period (FLT3-WT: 120 min, FLT3-ITD: 80 min, FLT3-D835Y: 100 min) at room temperature and then the reaction was stopped by adding 5 μL of ADP Glo reagent. […] Positive and negative controls were performed in 0.5% DMSO in the presence and absence of each FLT3 kinase, respectively. […] Half-maximal inhibition (IC50) values were calculated using a 4-parameter logistic non-linear regression model with Graphpad prism (Version 6.0). Apparent inhibition constants (Ki) values were calculated from Km (ATP) and IC50 values for the respective kinases.
Procedure for FLT3(WT): as §1

Regarding `CC(=O)N1CCN(c2ccc(Nc3ncc(F)c(-c4cnc5ccc(C)cn45)n3)nc2)CC1` [Cmpd 31, 1-(4-(6-((5-Fluoro-4-(6-methylimidazo[1,2-a]pyridin-3-yl)pyrimidin-2-yl)amino)pyridin-3-yl)piperazin-1-yl)ethan-1-one], the activity at CDK1B [1] came to 50%. In addition, the remaining activity at 1 µM at CDK4/D1 (setting [3]) came out at 37%; on CDK6/D3 (setting [3]) it was 38%. Moreover, the Ki at CDK2E1 was 0.301 µM; at CDK9/CyclinT1, 0.308 µM. Further, the GI50 – broadly, the concentration giving 50% growth inhibition – was found to be 19.1 µM in the experiment with U937 and 0.005 µM in the experiment with MV-4-11.
On to `CN1CCN(c2ccc(Nc3nccc(-c4cnc5ccc(-c6cn[nH]c6)cn45)n3)nc2)CC1` [Cmpd 67, 4-(6-(1H-Pyrazol-4-yl)imidazo[1,2-a]pyridin-3-yl)-N-(5-(4-methylpiperazin-1-yl)pyridin-2-yl)pyrimidin-2-amine], for which the Ki on CDK2E1 is 0.197 µM; on CDK9/CyclinT1, 0.041 µM; at FLT3(ITD), 0.011 µM. In addition, the figures for the GI50 in the experiment on U937 and with MV-4-11 were 0.018 µM and 0.017 µM, respectively.
As to `c1ccc(Nc2nccc(-c3cnc4ccccn34)n2)nc1` [Cmpd 7, 4-(Imidazo[1,2-a]pyridin-3-yl)-N-(pyridin-2-yl)pyrimidin-2-amine], the Ki at CDK4/D1 (setting [4]) was 0.218 µM; on CDK2E1, 0.084 µM; at CDK6/D3 (setting [4]), 0.37 µM; on FLT3(D835Y) it was 0.017 µM; at CDK9/CyclinT1, 0.041 µM; at CDK1B [2], 0.148 µM. Further, on FLT3(ITD), the Ki is 0.015 µM. For the same compound, the activity at CDK7HMAT1 was 43%. Also, the figures for the GI50 in the experiment on U937 and with MV-4-11 were 0.512 µM and 0.124 µM, respectively. Also, the remaining activity at 1 µM at FLT3(WT) turned out to be 34%.
